Activity calls are given as the source filed them. How the calls were made is not given here.
biological target: Peptidyl-prolyl cis-trans isomerase FKBP1A (Homo sapiens) (UniProt P62942); test: small-molecule binding to FKBP12 – biophysical, NMR detection (AID 608); details: purified FKBP12
Sequence (P62942 whole entry, looked up): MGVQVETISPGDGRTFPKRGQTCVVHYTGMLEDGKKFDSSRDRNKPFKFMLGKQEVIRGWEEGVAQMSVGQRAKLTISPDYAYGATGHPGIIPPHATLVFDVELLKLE

With `Cc1cc(C)nc(NC(N)=NCc2ccco2)n1` as the compound, how does the Kd read?
Its Kd is > 4 mM (inactive).

Which Kd does the source give for `Cc1cc(Cl)ccc1NC(=O)C(N)=O` here?
The Kd was > 4 mM (inactive).

For `O=C(O)CN(CCCc1ccccc1)CC(=O)O`, which Kd is on record?
The Kd was > 4 mM (inactive).

Which Kd does the source give for `Clc1ccccc1OCc1nc(-c2ccncc2)no1` here?
The Kd was > 4 mM (inactive).

For `OCc1csc(-c2ccccc2)n1`, which Kd is on record?
The Kd was > 4 mM (inactive).

How did the Kd turn out when `Cn1nnc2c(N3CCC(C(N)=O)CC3)ncnc21` was run?
The Kd was > 4 mM (inactive).

`O=C(Nc1ccccc1)c1cnc2n(c1=O)CCS2` was tested. Which Kd did it give?
Its Kd is > 4 mM (inactive).

How did the Kd turn out when `O=C(NCc1cccc(Cl)c1)c1ccco1` was run?
Its Kd is > 4 mM (inactive).

For `O=C(O)CCSc1nc2ccccc2s1`, which Kd is on record?
Its Kd is > 4 mM (inactive).

With `NC(=O)C1CCN(C(=O)CN2CCc3ccccc32)CC1` as the compound, how does the Kd read?
The Kd was > 4 mM (inactive).

For `CSc1nnc2c(n1)OC(C)=Nc1ccccc1-2`, which Kd is on record?
Its Kd is > 4 mM (inactive).

Which Kd does the source give for `Cc1onc(-c2ccccc2)c1CN` here?
Its Kd is > 4 mM (inactive).

How did the Kd turn out when `Oc1ccccc1C(=S)N1CCCCCC1` was run?
The Kd was > 4 mM (inactive).

For `O=C(c1ccc(F)cc1)C1CCNCC1`, which Kd is on record?
The Kd was > 4 mM (inactive).

How did the Kd turn out when `C/C1=C\CCC(=O)C2CC(C)(C)C2CC1` (stereo unspecified) was run?
The Kd was > 4 mM (inactive).

How did the Kd turn out when `O=C(O)c1cc(O)c2c(c1)C(=O)c1cc(O)cc(O)c1C2=O` was run?
The Kd was > 4 mM (inactive).

With `O=C(O)c1ccc(NC(=O)c2cccs2)cc1` as the compound, how does the Kd read?
The Kd was > 4 mM (inactive).

`Cc1cc(OC(=O)c2c(C)cc(O)cc2O)cc(O)c1C(=O)O` was tested. Which Kd did it give?
Its Kd is > 4 mM (inactive).

For `N#CCN1C(=O)c2ccccc2S1(=O)=O`, which Kd is on record?
The Kd was > 4 mM (inactive).

Which Kd does the source give for `O=C(NC(=S)NC1CCSC1=O)c1ccco1` (stereo unspecified) here?
Its Kd is > 4 mM (inactive).

With `CS(=O)(=O)N1CCN(C(=O)Cc2cccs2)CC1` as the compound, how does the Kd read?
Its Kd is > 4 mM (inactive).

With `CC(=O)NN1C(=O)/C(=C\c2ccc(O)cc2)SC1=S` as the compound, how does the Kd read?
The Kd was > 4 mM (inactive).

Which Kd does the source give for `Cc1nnsc1C(=O)Nc1ccccc1[N+](=O)[O-]` here?
Its Kd is > 4 mM (inactive).

Which Kd does the source give for `c1cncc(-c2nnc(-c3cccnc3)nn2)c1` here?
The Kd was > 4 mM (inactive).

Which Kd does the source give for `O/N=C1/CCCc2nonc21` here?
Its Kd is > 4 mM (inactive).

Which Kd does the source give for `O=C(c1cccnc1Cl)N1CCOCC1` here?
Its Kd is > 4 mM (inactive).

How did the Kd turn out when `Cc1nnc(-n2cnc3ccccc32)c2ccccc12` was run?
The Kd was > 4 mM (inactive).

For `Fc1cccc(F)c1CN1CCN(c2ncccn2)CC1`, which Kd is on record?
Its Kd is > 4 mM (inactive).

For `Cc1cc(-c2ccccc2)nc2cc(C(N)=O)nn12`, which Kd is on record?
Its Kd is > 4 mM (inactive).

`COc1cc(OC)c2c(OC)c(-c3ccc4c(c3)OCO4)c(=O)oc2c1` was tested. Which Kd did it give?
Its Kd is > 4 mM (inactive).

`COc1ccc(NS(=O)(=O)c2ccc(N)cc2)nn1` was tested. Which Kd did it give?
Its Kd is > 4 mM (inactive).

How did the Kd turn out when `Cc1nc2ccc(C(=O)O)cc2nc1C` was run?
The Kd was > 4 mM (inactive).

With `Cc1cc(=O)n(CC(C)C)c(O)c1C#N` as the compound, how does the Kd read?
Its Kd is > 4 mM (inactive).

How did the Kd turn out when `O=S1(=O)CCC(NC(=S)Nc2ccc(O)cc2)C1` (stereo unspecified) was run?
Its Kd is > 4 mM (inactive).

For `O=C(O)c1coc2c1C(=O)CCC2`, which Kd is on record?
The Kd was > 4 mM (inactive).

For `CSc1nc(C)cc(-n2ccc(=O)[nH]c2=O)n1`, which Kd is on record?
The Kd was > 4 mM (inactive).

How did the Kd turn out when `O=C(/C=C/c1ccccc1)c1ccc(O[C@@H]2O[C@H](CO)[C@@H](O)[C@H](O)[C@H]2O)cc1O` was run?
The Kd was > 4 mM (inactive).

How did the Kd turn out when `N#Cc1cc(-c2ccccc2)oc1N` was run?
The Kd was > 4 mM (inactive).

With `CC[C@@]1(O)C[C@H](O[C@H]2C[C@H](N(C)C)[C@H](O)[C@H](C)O2)c2c(cc3c(c2O)C(=O)c2c(O)cccc2C3=O)[C@H]1C(=O)OC` as the compound, how does the Kd read?
Its Kd is > 4 mM (inactive).

For `COc1c(O)cc2oc3cc(O)c(CC=C(C)C)c(O)c3c(=O)c2c1CC=C(C)C`, which Kd is on record?
The Kd was > 4 mM (inactive).

Which Kd does the source give for `S=C1NC(=S)NC(c2ccc3c(c2)OCO3)N1` here?
Its Kd is > 4 mM (inactive).

`O=C(NCc1cccc(Cl)c1)c1cnccn1` was tested. Which Kd did it give?
Its Kd is > 4 mM (inactive).

`O=C(CCc1ccc(O)cc1)c1c(O)cc(O)cc1O` was tested. Which Kd did it give?
Its Kd is > 4 mM (inactive).

Which Kd does the source give for `O=C1NC(=S)N/C1=C\c1ccccc1F` here?
The Kd was > 4 mM (inactive).

Which Kd does the source give for `CCNCC(O)c1ccc([N+](=O)[O-])cc1` (stereo unspecified) here?
Its Kd is > 4 mM (inactive).

How did the Kd turn out when `OCc1ccccc1CN1CCOCC1` was run?
The Kd was > 4 mM (inactive).

How did the Kd turn out when `Nc1ccccc1-n1cccn1` was run?
The Kd was > 4 mM (inactive).

How did the Kd turn out when `COc1ccccc1NC(=O)CCC(=O)O` was run?
Its Kd is > 4 mM (inactive).

`NC(=O)CSc1nc2ncnc(N)c2[nH]1` was tested. Which Kd did it give?
Its Kd is > 4 mM (inactive).

`CCn1nnc(NC(=O)c2cc3ccccc3o2)n1` was tested. Which Kd did it give?
Its Kd is > 4 mM (inactive).

How did the Kd turn out when `NC(=O)COc1ccccc1O` was run?
Its Kd is > 4 mM (inactive).

How did the Kd turn out when `OCCNC(=S)Nc1ccc(F)cc1` was run?
Its Kd is > 4 mM (inactive).

How did the Kd turn out when `O=C1N=C(N2CCOCC2)S/C1=C\c1cccnc1` was run?
Its Kd is > 4 mM (inactive).

With `Cc1[nH]c2ccccc2c1CN(C)C` as the compound, how does the Kd read?
The Kd was > 4 mM (inactive).

For `Cn1nnc2cc(C(=O)N3CCSCC3)ccc21`, which Kd is on record?
Its Kd is > 4 mM (inactive).

Which Kd does the source give for `Cc1ccccc1C(=O)Nc1cccc(N)c1` here?
The Kd was > 4 mM (inactive).

With `CS(C)=C1C(=O)NC(=O)N(c2ccccc2)C1=O` as the compound, how does the Kd read?
Its Kd is > 4 mM (inactive).

`CCn1ncc(Cl)c1C(=O)Nc1ccncc1` was tested. Which Kd did it give?
The Kd was > 4 mM (inactive).

With `CNC(=O)Cn1c(=O)n(C)c2ccccc21` as the compound, how does the Kd read?
Its Kd is > 4 mM (inactive).

`O=C(Nc1cccc(Cl)c1)c1ccncc1` was tested. Which Kd did it give?
Its Kd is > 4 mM (inactive).

How did the Kd turn out when `NCc1ccc(-c2csnn2)cc1` was run?
Its Kd is > 4 mM (inactive).
